Target: T1, TmPPase (Thermotoga maritima, UniProt Q9S5X0)
T1 construct: gene hppA; N-terminally His6-tagged, plasmid pRS1024, expressed in Saccharomyces cerevisiae BJ1991, OGNPG-solubilised, homodimer
T1 sequence (Q9S5X0 1-726 limits assumed): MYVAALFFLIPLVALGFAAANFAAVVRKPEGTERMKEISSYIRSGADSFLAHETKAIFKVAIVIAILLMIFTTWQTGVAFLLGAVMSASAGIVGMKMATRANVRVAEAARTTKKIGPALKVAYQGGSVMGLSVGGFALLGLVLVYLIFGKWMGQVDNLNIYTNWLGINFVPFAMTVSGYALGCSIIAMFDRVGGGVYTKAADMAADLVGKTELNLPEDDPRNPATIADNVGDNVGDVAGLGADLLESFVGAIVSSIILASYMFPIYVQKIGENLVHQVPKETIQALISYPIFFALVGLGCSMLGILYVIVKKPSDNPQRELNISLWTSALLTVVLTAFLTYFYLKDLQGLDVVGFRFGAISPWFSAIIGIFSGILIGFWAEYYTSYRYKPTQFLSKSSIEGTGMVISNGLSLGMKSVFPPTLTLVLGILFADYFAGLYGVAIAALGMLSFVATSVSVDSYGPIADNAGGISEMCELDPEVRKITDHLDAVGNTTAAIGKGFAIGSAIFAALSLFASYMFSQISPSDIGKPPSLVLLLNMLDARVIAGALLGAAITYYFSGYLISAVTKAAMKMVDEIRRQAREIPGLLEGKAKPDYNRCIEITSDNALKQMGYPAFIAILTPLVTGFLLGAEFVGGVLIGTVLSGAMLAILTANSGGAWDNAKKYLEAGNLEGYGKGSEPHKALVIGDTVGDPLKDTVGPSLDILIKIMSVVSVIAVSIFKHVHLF
Experiment: X-ray crystallography, […] Å
Format: binding
Conditions: active site, as Mg5IDP complex; Na+ bound at ion gate; pH 8.5 well solution; non-hydrolysable substrate analogue

## O=P(O)(O)NP(=O)(O)O [IDP, imidodiphosphate]
  X-ray crystallography, 3.5 Å: In TmPPase:IDP, an Mg5IDP-complex was fit into the positive Fo–Fc density in the hydrolytic centre

— PMC5150537 (Nature Communications, 2016)
